According to publication PMC6801739, “Antitumor Activity of a Novel Tyrosine Kinase Inhibitor AIU2001 Due to Abrogation of the DNA Damage Repair in Non-Small Cell Lung Cancer Cells” (International Journal of Molecular Sciences, 2019):

Legend:
[1] = biological target: T1, FGFR1 (Homo sapiens, UniProt P11362); assay: Kinase profiling at 10 μM (Eurofins); type: biochemical; conditions: read-out: Inhibitory activity
T1 construct: purchased Eurofins Pharma Discovery (KinaseProfiler); IC50 values by Reaction Biology Corp
T1 sequence (P11362 22-822): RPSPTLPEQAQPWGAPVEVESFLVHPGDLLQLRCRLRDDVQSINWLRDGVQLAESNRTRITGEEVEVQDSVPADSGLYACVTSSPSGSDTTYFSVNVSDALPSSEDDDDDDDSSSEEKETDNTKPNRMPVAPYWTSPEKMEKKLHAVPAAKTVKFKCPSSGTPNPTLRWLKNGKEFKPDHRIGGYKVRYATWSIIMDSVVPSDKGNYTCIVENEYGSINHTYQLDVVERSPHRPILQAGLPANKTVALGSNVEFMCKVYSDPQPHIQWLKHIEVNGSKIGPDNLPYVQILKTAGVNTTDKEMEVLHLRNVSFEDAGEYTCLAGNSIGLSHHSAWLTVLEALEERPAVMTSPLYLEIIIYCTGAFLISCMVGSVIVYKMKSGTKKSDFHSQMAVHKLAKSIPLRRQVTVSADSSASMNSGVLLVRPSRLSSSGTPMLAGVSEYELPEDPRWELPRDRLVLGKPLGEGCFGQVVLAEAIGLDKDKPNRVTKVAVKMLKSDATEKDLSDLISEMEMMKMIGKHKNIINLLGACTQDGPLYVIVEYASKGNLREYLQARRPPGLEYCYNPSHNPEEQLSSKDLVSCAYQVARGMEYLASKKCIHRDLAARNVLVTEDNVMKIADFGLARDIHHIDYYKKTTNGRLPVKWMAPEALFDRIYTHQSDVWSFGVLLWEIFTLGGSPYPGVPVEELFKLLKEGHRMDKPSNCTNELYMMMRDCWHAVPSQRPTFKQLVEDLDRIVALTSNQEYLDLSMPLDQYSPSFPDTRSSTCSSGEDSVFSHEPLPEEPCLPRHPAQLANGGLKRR

[2] = biological target: FLT3 (ITD) (Homo sapiens, UniProt P36888, ITD); assay: In vitro kinase assay, IC50 (Reaction Biology Corp.); type: biochemical
Sequence of FLT3 (ITD) (P36888 564-993, stated change not applied): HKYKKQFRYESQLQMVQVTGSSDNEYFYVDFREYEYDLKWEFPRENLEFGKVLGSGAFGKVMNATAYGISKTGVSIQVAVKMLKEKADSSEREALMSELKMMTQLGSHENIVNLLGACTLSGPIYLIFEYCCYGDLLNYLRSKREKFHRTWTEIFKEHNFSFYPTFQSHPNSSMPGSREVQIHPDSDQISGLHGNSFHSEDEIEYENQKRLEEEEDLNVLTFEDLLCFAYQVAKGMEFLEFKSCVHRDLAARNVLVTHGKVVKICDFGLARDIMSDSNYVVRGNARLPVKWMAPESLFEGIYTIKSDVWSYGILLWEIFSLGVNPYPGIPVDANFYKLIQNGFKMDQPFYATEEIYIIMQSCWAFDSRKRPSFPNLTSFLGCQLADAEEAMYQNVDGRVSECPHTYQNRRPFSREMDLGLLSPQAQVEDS

[3] = biological target: T2, TrkA (Homo sapiens, UniProt P04629); assay: Kinase profiling at 10 μM (Eurofins); type: biochemical; conditions: read-out: Inhibitory activity
T2 construct: purchased Eurofins Pharma Discovery (KinaseProfiler); IC50 values by Reaction Biology Corp
T2 sequence (P04629 33-796): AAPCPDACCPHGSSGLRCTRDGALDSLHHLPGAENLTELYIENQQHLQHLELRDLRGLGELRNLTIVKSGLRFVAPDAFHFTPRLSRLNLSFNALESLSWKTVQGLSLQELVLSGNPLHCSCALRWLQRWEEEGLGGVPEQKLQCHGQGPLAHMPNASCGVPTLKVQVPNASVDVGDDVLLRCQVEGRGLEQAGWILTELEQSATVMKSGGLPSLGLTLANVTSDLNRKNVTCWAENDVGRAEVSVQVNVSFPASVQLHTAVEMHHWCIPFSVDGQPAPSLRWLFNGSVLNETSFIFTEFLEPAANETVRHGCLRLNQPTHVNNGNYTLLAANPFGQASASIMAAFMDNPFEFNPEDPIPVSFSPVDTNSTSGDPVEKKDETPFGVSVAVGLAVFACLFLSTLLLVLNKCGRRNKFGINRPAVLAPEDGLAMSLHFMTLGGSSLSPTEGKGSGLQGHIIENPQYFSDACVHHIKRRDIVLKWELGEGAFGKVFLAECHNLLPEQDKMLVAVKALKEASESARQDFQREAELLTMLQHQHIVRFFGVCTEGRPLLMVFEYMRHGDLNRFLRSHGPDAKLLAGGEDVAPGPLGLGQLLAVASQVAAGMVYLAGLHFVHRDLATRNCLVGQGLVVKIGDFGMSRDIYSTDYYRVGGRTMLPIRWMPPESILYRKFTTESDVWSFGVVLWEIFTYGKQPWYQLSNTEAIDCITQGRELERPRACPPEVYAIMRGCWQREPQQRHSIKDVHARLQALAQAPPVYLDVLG

[4] = system: A549 cells; assay: MTT cell viability assay, single drugs and combinations, CI scores; type: cell-based, human
Experimental: (§1) Cell viability was assessed using the MTT colorimetric assay. Cells (1 × 10^3 cells/well) were seeded into 96-well plates and treated with the various concentrations of each compound or combination of two compounds. After five days of treatment, 10 μL MTT (0.5 mg/mL) was added, and further incubated for 3 h. After removal of the supernatant, the resultant pellet was dissolved in DMSO. The absorbance of the resultant formazan was measured at 540 nm using a plate reader (Multiskan EX; ThermoLabsystems, Waltham, MA, USA).
(§2) CI scores were calculated using the CompuSyn software by Chou (CompuSyn Inc., Paramus, NJ) based on cell viability after treatment with single- and paired-drug concentrations. The CI equation for two drugs was used: CI=(D)A/(Dx)A+(D)B/(Dx)B where (Dx)A is the concentration of drug A alone that inhibits x%, (Dx)B is the concentration of drug B alone that inhibits x%, (D)A or (D)B is the portion of drug A or drug B in the combination (D)A + (D)B that inhibits x%.

[5] = system: H1299 cells; assay: as above; type: cell-based, human
Experimental: as §1, §2

[6] = biological target: T3, AMPKα1 (Homo sapiens, UniProt Q13131); assay: Kinase profiling at 10 μM (Eurofins); type: biochemical; conditions: read-out: Inhibitory activity
T3 construct: purchased Eurofins Pharma Discovery (KinaseProfiler); IC50 values by Reaction Biology Corp

[7] = system: Molm-13 cells; assay: CCK-8 cell viability assay; type: cell-based, human; conditions: CCK-8, 5 days
Experimental: (§3) Supplementary Figure 1. AIU2001 inhibited the proliferation of various cancer cells. (A and B) Human AML cells (Molm-13 and MV4-11; A) and human colorectal cancer (CRC) cells (HCT116/p53+/+ and HCT116/p53-/-; B) were treated with AIU2001 at the indicated concentrations for 5 days and viable cells were evaluated using the CCK-8 assay for AML cells and the MTT assay for CRC cells. *p < 0.05, **p < 0.01, ***p < 0.001 versus respective vehicle controls.
(§4) (also on this page, place not known: ca ncer fo r 02468 Cell viability (%) 0 1 Cell viability (%) *** *** ***) […]
(§5) Cell viability. Cytotoxicity assay of AML cells was performed using cell counting kit-8 (CCD-8; Dojindo, Japan) according to the manufacturer’s procedure. Briefly, MV4-11 or Molm-13 cells were plated in 96-well plates at a density of […] or 1 × 10^3 cells/well in triplicate, treated with AIU2001 or DMSO, and then incubated for 5 days. After adding the CCK-8 solution (10 μl) to each well and incubating the plates for 3 h, absorbance at 450 nm was measured using a microplate reader

[8] = system: MV4-11 cells; assay: CCK-8 cell viability assay; type: cell-based, human; conditions: CCK-8, 5 days
Experimental: as §3, §4, §5

[9] = biological target: T4, FLT3 (Homo sapiens, UniProt P36888); assay: In vitro kinase assay, IC50 (Reaction Biology Corp.); type: biochemical
T4 construct: purchased Eurofins Pharma Discovery (KinaseProfiler); IC50 values by Reaction Biology Corp
T4 sequence (P36888 27-993): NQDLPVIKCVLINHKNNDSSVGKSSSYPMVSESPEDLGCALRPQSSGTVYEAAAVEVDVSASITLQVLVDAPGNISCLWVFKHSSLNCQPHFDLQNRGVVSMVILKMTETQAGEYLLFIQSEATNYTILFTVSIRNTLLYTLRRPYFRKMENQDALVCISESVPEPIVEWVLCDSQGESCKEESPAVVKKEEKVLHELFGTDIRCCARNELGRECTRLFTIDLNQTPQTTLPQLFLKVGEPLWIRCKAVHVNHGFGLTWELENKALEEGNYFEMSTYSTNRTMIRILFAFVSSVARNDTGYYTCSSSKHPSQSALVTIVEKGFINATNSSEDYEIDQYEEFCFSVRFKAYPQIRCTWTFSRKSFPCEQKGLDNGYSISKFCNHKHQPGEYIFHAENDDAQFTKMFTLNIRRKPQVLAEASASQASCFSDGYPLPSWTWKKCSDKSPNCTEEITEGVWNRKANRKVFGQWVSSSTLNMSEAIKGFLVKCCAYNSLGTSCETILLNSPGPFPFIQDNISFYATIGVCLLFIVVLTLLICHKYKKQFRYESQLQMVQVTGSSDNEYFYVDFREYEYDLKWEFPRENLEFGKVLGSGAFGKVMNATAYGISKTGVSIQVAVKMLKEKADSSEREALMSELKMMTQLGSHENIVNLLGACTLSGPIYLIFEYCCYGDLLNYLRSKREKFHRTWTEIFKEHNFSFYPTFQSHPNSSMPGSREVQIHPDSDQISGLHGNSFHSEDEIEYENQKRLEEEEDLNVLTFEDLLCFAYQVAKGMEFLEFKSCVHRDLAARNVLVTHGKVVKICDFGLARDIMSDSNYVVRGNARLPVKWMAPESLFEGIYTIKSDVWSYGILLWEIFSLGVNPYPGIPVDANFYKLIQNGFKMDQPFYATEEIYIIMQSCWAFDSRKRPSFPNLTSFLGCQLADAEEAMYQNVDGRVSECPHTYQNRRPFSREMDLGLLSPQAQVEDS

[10] = biological target: T5, cSRC (Homo sapiens, UniProt P12931); assay: Kinase profiling at 10 μM (Eurofins); type: biochemical; conditions: read-out: Inhibitory activity
T5 construct: purchased Eurofins Pharma Discovery (KinaseProfiler); IC50 values by Reaction Biology Corp

[11] = system: H1299 cells; assay: Immunoblot of phospho-STAT5; type: cell-based, human
Experimental: Cell lysates were prepared by extracting proteins with TNN buffer (40 mM Tris-Cl pH 8.0, 0.2% NP-40, 120 mM NaCl) or radioimmunoprecipitation assay (RIPA) lysis buffer (Millipore, Billerica MA, USA) supplemented with a protease inhibitor cocktail (Thermo Fisher Scientific, Rockford, IL, USA). Equal amounts of proteins were separated using SDS-PAGE on 8–13% gels, and transferred to nitrocellulose membranes (Bio-Rad, Hercules, CA, USA). The membranes were blocked with 5% skim milk in Tris-buffered saline-Tween 20 (TBST) (150 mM NaCl, 10 mM Tris, 0.2% Tween20), followed by overnight incubation with primary antibodies at 4 °C. The blots were developed using peroxidase-conjugated secondary antibody and the immunoreactive proteins were visualized using enhanced chemiluminescence (ECL) reagents, according to the manufacturer’s recommendations (Amersham, GE Healthcare, Buckingamshire, UK). The protein bands were visualized using a digital imaging system (ImageQuant LAS 4000 mini; GE Healthcare, UK). The protein levels were analyzed using Image J software (National Institutes of Health, Bethesda, MD, USA). Experiments were repeated at least thrice.

[12] = biological target: T6, c-KIT (Homo sapiens, UniProt P10721); assay: Kinase profiling at 10 μM (Eurofins); type: biochemical; conditions: read-out: Inhibitory activity
T6 construct: purchased Eurofins Pharma Discovery (KinaseProfiler); IC50 values by Reaction Biology Corp
T6 sequence (P10721 26-976): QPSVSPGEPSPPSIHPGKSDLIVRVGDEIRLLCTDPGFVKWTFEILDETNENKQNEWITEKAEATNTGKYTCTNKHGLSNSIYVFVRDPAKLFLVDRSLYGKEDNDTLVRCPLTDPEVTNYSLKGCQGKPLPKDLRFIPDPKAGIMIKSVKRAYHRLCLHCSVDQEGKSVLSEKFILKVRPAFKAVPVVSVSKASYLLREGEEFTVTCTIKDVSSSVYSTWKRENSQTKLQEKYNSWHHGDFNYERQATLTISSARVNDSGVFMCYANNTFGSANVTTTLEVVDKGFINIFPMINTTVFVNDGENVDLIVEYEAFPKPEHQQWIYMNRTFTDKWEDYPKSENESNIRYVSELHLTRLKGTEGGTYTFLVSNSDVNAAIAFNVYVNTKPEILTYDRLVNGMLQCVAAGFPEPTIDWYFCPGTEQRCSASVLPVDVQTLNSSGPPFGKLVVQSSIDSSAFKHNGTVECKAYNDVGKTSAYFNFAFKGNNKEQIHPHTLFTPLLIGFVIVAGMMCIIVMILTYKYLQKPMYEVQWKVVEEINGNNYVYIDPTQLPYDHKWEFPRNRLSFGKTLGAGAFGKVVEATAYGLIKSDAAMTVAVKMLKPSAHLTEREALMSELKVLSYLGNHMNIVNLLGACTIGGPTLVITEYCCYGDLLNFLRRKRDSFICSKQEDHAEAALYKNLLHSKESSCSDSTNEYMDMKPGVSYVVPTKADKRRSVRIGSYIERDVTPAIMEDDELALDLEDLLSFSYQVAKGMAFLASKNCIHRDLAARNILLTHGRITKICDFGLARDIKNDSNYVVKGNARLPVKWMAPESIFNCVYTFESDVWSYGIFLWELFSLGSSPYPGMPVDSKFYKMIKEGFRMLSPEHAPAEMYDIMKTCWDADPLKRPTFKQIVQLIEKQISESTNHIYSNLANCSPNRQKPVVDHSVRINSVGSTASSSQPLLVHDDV

[13] = biological target: T7, PDGFRα (Homo sapiens, UniProt P16234); assay: Kinase profiling at 10 μM (Eurofins); type: biochemical; conditions: read-out: Inhibitory activity
T7 construct: purchased Eurofins Pharma Discovery (KinaseProfiler); IC50 values by Reaction Biology Corp

[14] = biological target: T8, Met (Homo sapiens, UniProt P08581); assay: Kinase profiling at 10 μM (Eurofins); type: biochemical; conditions: read-out: Inhibitory activity
T8 construct: purchased Eurofins Pharma Discovery (KinaseProfiler); IC50 values by Reaction Biology Corp

[15] = biological target: T9, Aurora-A (Homo sapiens, UniProt O14965); assay: Kinase profiling at 10 μM (Eurofins); type: biochemical; conditions: read-out: Inhibitory activity
T9 construct: purchased Eurofins Pharma Discovery (KinaseProfiler); IC50 values by Reaction Biology Corp
T9 sequence (O14965 whole entry): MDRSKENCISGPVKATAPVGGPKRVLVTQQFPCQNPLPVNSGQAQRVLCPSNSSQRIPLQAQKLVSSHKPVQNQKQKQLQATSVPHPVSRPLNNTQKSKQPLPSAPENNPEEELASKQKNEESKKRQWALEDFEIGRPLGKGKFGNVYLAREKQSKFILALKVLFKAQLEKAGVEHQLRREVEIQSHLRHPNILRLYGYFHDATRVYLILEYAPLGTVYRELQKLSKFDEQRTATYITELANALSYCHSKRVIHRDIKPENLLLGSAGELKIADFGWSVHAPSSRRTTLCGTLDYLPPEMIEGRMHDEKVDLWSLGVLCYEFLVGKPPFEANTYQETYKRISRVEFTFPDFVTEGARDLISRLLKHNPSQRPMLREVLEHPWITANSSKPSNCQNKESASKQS

[16] = biological target: T10, PDK1 (Homo sapiens, UniProt O15530); assay: Kinase profiling at 10 μM (Eurofins); type: biochemical; conditions: read-out: Inhibitory activity
T10 construct: purchased Eurofins Pharma Discovery (KinaseProfiler); IC50 values by Reaction Biology Corp
T10 sequence (O15530 whole entry): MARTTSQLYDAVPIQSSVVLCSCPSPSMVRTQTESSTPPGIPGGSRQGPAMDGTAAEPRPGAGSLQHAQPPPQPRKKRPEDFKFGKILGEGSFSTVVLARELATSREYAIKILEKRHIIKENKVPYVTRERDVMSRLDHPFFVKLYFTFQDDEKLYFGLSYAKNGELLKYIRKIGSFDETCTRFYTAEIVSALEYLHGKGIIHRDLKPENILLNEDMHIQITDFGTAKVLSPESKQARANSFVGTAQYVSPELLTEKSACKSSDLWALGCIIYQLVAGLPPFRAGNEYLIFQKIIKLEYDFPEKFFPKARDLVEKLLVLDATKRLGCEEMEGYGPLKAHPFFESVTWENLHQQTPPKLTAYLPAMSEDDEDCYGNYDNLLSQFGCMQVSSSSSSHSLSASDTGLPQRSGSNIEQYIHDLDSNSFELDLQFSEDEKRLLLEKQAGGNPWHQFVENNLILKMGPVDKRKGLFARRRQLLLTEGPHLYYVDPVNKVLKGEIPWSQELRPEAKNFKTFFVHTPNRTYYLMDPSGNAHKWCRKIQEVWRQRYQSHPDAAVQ

[17] = system: A549 cells; assay: Detection of intracellular ROS (CM-H2DCFDA, flow cytometry); type: cell-based, human; conditions: 5 μM, 24 h
Experimental: (§6) DMSO- or AIU2001-treated cells (5 × 10^5) were further treated with 10 μM CM-H2DCFH-DA for 30min and then washed with PBS before trypsinization. After detaching with trypsin, the cells were collected, washed, and resuspended in PBS. ROS inhibition was evaluated by treating cells with 5 mM NAC 2 h prior to AIU2001 treatment. Intracellular ROS levels were detected using a flow cytometer (CyFlow cube 6) at excitation/emission wavelengths of 488/525 nm.

[18] = system: H1299 cells; assay: as above; type: cell-based, human; conditions: 5 μM, 24 h
Experimental: as §6

inhibition at 10 µM [1]: 1% | IC50 [2]: 63.2 nM | inhibition at 10 µM [3]: 40% | inhibition at 10 µM [6]: 25% | IC50 [9]: 206 nM | inhibition at 10 µM [10]: 22% | inhibition at 10 µM [12]: ≥ 75% | inhibition at 10 µM [13]: 48% | inhibition at 10 µM [14]: 1% | inhibition at 10 µM [15]: 28% | inhibition at 10 µM [16]: 19%
Compound: Brc1ccc(-c2cnc(Nc3cccc4ccccc34)o2)cc1 [AIU2001, 5-(4-bromophenyl)-N-(naphthalen-1-yl) oxazol-2-amine]
viability at 0.16 µM ([4]; Homo sapiens, 120 h, Olaparib 0, AIU2001 0.16 μM, 5 days, panel A, read-out: Relative viability): 95.1% | viability at 0.32 µM ([4]; Homo sapiens, 120 h, Olaparib 0, AIU2001 0.32 μM, 5 days, panel A, read-out: Relative viability): 95% | viability at 0.63 µM ([4]; Homo sapiens, 120 h, Olaparib 0, AIU2001 0.63 μM, 5 days, panel A, read-out: Relative viability): 89% | viability at 1.25 µM ([4]; Homo sapiens, 120 h, Olaparib 0, AIU2001 1.25 μM, 5 days, panel A, read-out: Relative viability): 86.5% | viability at 2.5 µM ([4]; Homo sapiens, 120 h, Olaparib 0, AIU2001 2.50 μM, 5 days, panel A, read-out: Relative viability): 53.6% | viability at 5 µM ([4]; Homo sapiens, 120 h, Olaparib 0, AIU2001 5.00 μM, 5 days, panel A, read-out: Relative viability): 31.6% | viability at 10 µM ([4]; Homo sapiens, 120 h, Olaparib 0, AIU2001 10.00 μM, 5 days, panel A, read-out: Relative viability): 21.1% | Growth inhibition ([4]; MTT, five days): significantly inhibited the growth | viability at 0.16 µM ([5]; Homo sapiens, NCI-H1299, 120 h, Olaparib 0, AIU2001 0.16 μM, 5 days, panel A, read-out: Relative viability): 101% | viability at 0.32 µM ([5]; Homo sapiens, NCI-H1299, 120 h, Olaparib 0, AIU2001 0.32 μM, 5 days, panel A, read-out: Relative viability): 93.7% | viability at 0.63 µM ([5]; Homo sapiens, NCI-H1299, 120 h, Olaparib 0, AIU2001 0.63 μM, 5 days, panel A, read-out: Relative viability): 94.2% | viability at 1.25 µM ([5]; Homo sapiens, NCI-H1299, 120 h, Olaparib 0, AIU2001 1.25 μM, 5 days, panel A, read-out: Relative viability): 90% | viability at 2.5 µM ([5]; Homo sapiens, NCI-H1299, 120 h, Olaparib 0, AIU2001 2.50 μM, 5 days, panel A, read-out: Relative viability): 65.5% | viability at 5 µM ([5]; Homo sapiens, NCI-H1299, 120 h, Olaparib 0, AIU2001 5.00 μM, 5 days, panel A, read-out: Relative viability): 26.2% | viability at 10 µM ([5]; Homo sapiens, NCI-H1299, 120 h, Olaparib 0, AIU2001 10.00 μM, 5 days, panel A, read-out: Relative viability): 15.4% | Growth inhibition ([5]; MTT, five days): significantly inhibited the growth | Growth inhibition [7]: inhibited the growth | Growth inhibition [8]: inhibited the growth | Phosphorylated STAT5 [11]: inhibited phosphorylated STAT5 | ROS levels [17]: distinctly increased ROS levels | ROS levels [18]: distinctly increased ROS levels
